Earlier results, collected in patent publication US12121499B2, “Pharmaceutical composition comprising the phytocannabinoids cannabidivarin (CBDV) and cannabidiol (CBD)” (priority 2011, dated 2024).
Read-outs that look alike come from different tables or passages of the source.

How the values were obtained:
seizure frequency = conditions: 900-1200 mg of cannabidiol a day for 10 months; single patient
[1] = rats; WO 2007/138322
[2] = test system: seizure frequency in epileptic patients; conditions: 200-300 mg of cannabidiol per day plus standard antiepileptic drugs; 12 epileptic patients
CB1 receptor [3] = target: T1, CB1 receptor (Homo sapiens, UniProt P21554); conditions: WO 2007/138322
T1 sequence (P21554 whole entry): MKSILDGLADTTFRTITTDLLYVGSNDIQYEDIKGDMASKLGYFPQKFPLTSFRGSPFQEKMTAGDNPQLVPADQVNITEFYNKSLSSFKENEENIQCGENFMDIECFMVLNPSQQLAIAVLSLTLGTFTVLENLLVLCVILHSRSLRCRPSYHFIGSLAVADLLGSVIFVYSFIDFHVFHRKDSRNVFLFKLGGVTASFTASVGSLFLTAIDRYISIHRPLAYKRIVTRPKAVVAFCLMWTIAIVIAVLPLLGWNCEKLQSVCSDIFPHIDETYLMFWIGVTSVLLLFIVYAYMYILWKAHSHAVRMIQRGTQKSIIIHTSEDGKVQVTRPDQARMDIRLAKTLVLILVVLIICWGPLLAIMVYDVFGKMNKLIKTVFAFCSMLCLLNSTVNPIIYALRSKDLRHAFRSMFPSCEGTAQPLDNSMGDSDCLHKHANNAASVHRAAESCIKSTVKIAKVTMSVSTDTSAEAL

grand mal seizures = conditions: 200-300 mg cannabidiol plus regular medication
CB2 receptor = CB2 receptor (Homo sapiens, UniProt P34972); conditions: WO 2007/138322
Chain of CB2 receptor (P34972 whole entry): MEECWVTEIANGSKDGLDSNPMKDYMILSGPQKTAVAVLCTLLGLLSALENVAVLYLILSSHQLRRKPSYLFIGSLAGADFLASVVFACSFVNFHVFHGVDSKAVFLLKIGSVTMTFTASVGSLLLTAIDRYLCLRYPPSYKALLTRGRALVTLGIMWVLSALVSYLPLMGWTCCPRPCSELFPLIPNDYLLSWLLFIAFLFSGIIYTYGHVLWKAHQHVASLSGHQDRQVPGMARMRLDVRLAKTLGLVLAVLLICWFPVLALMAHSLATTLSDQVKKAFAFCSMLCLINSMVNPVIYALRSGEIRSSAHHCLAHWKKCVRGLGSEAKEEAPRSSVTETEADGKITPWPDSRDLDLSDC

seizures = conditions: 5 institutionalized children not responding to phenobarbital and phenoytin
CB1 receptor [4] = target: T1, CB1 receptor; conditions: WO 2006/054057; Pertwee (2000)
[5] = rats, doses greater than 200 mg/kg

C=C(C)[C@@H]1CCC(C)=C[C@H]1c1c(O)cc(CCCCC)cc1O [CBD, Cannabidiol]
seizure frequency (seizure frequency): markedly reduced
bodyweight [1]: reduced bodyweight
seizure frequency [2]: no significant improvement
action at the CB1 receptor (CB1 receptor [3]): inverse agonist
patients who remained unchanged (grand mal seizures): 1
patients who showed minor improvement (grand mal seizures): 2
patients who showed partial improvement (grand mal seizures): 2
unwanted effect (grand mal seizures): mild sedation
patients who showed complete improvement (grand mal seizures; 16 grand mal patients in study): 3
action at the CB2 receptor (CB2 receptor): inverse agonist

CCCCCc1cc(O)c2c(c1)OC(C)(C)[C@@H]1CCC(C)=C[C@@H]21 [THC, Tetrahydrocannabinol]
seizure outcome (seizures): One became entirely free of seizures, one became almost completely free of seizures, and the other three did no worse than before

CCCc1cc(O)c2c(c1)OC(C)(C)[C@@H]1CCC(C)=C[C@@H]21 [THCV, Tetrahydrocannabivarin]
action at the CB1 receptor (CB1 receptor [4]): CB1 receptor antagonist

CCC1(C)CC(=O)NC1=O (stereo not drawn) [ethosuximide]
motor and other side effects [5]: notable motor and other side effects (including sedation)

CCC1(c2ccccc2)C(=O)NC(=O)NC1=O [phenobarbital]
motor and other side effects (rat models of epilepsy, doses greater than 250 mg/kg): notable motor and other side effects (including sedation)

CCCC(CCC)C(=O)O [valproate]
motor and other side effects [5]: notable motor and other side effects (including sedation)
